Results published in PubChem BioAssay AID2060496 (Molecular Pharmacology Branch, DTP, NCI, 2025).

System: 276233-004-R-J1-PDC complex spheroid viability
Assay: Anticancer human tumor 276233-004-R-J1-PDC patient-derived colon adenocarcinoma cell line growth inhibition [GQUAD]
Settings: for IC50: curve of first compound; for viability, T/C: stronger effect = lower value
Procedure, shortened: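 Multi-cell-type spheroids of tumor cells with HUVEC and mesenchymal stem cells, treated with drug combinations. Concentrations descend in half-log steps from near clinical Cmax, or from 10 microM where Cmax is unknown; viability read-out.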

[1] = second compound 0.0316 µM, first compound 0.0316 µM
[2] = second compound 0.0316 µM, first compound 0.1 µM
[3] = second compound 0.0316 µM, first compound 0.316 µM
[4] = second compound 0.0316 µM, first compound 1 µM
[5] = second compound 0.0316 µM, first compound 3.16 µM
[6] = second compound 0.0316 µM, first compound 10 µM
[7] = second compound 0.1 µM, first compound 0.0316 µM
[8] = second compound 0.1 µM, first compound 0.1 µM
[9] = second compound 0.1 µM, first compound 0.316 µM
[10] = second compound 0.1 µM, first compound 1 µM
[11] = second compound 0.1 µM, first compound 3.16 µM
[12] = second compound 0.1 µM, first compound 10 µM
[13] = second compound 0.316 µM, first compound 0.0316 µM
[14] = second compound 0.316 µM, first compound 0.1 µM
[15] = second compound 0.316 µM, first compound 0.316 µM
[16] = second compound 0.316 µM, first compound 1 µM
[17] = second compound 0.316 µM, first compound 3.16 µM
[18] = second compound 0.316 µM, first compound 10 µM
[19] = second compound 1 µM, first compound 0.0316 µM
[20] = second compound 1 µM, first compound 0.1 µM
[21] = second compound 1 µM, first compound 0.316 µM
[22] = second compound 1 µM, first compound 1 µM
[23] = second compound 1 µM, first compound 3.16 µM
[24] = second compound 1 µM, first compound 10 µM
[25] = second compound 3.16 µM, first compound 0.0316 µM
[26] = second compound 3.16 µM, first compound 0.1 µM
[27] = second compound 3.16 µM, first compound 0.316 µM
[28] = second compound 3.16 µM, first compound 1 µM
[29] = second compound 3.16 µM, first compound 3.16 µM
[30] = second compound 3.16 µM, first compound 10 µM
[31] = second compound 10 µM, first compound 0.0316 µM
[32] = second compound 10 µM, first compound 0.1 µM
[33] = second compound 10 µM, first compound 0.316 µM
[34] = second compound 10 µM, first compound 1 µM
[35] = second compound 10 µM, first compound 3.16 µM
[36] = second compound 10 µM, first compound 10 µM
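Also: spheroids exposed to drugs for seven days.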
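For viability, T/C in this document: 100% = DMSO vehicle control viability.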

## C#Cc1c(F)ccc2cc(O)cc(-c3ncc4c(N5CC6CCC(C5)N6)nc(OCC56CCCN5CC(F)C6)nc4c3F)c12 (stereo not drawn) + Cc1cnc(CNC(=O)c2c(=O)c3ccc(N4CCCN(C)CC4)nc3n3c2sc2ccccc23)cn1
Second compound 0.0316 µM
  IC50: > 10 µM
Second compound 0.1 µM
  IC50: > 10 µM
Second compound 0.316 µM
  IC50: > 10 µM
Second compound 1 µM
  IC50: 7.14 µM
Second compound 3.16 µM
  IC50: 1.55 µM
Second compound 10 µM
  IC50: 1.43 µM
[1]
  viability, T/C: 115%
[2]
  viability, T/C: 86.6%
[3]
  viability, T/C: 101%
[4]
  viability, T/C: 77.5%
[5]
  viability, T/C: 83%
[6]
  viability, T/C: 57.8%
[7]
  viability, T/C: 95.2%
[8]
  viability, T/C: 77.7%
[9]
  viability, T/C: 75.3%
[10]
  viability, T/C: 75%
[11]
  viability, T/C: 70.7%
[12]
  viability, T/C: 60.5%
[13]
  viability, T/C: 84.1%
[14]
  viability, T/C: 73%
[15]
  viability, T/C: 85.7%
[16]
  viability, T/C: 80.8%
[17]
  viability, T/C: 69.5%
[18]
  viability, T/C: 59.6%
[19]
  viability, T/C: 84.2%
[20]
  viability, T/C: 71.4%
[21]
  viability, T/C: 75.5%
[22]
  viability, T/C: 73%
[23]
  viability, T/C: 62.8%
[24]
  viability, T/C: 44.4%
[25]
  viability, T/C: 65.2%
[26]
  viability, T/C: 76.2%
[27]
  viability, T/C: 66.9%
[28]
  viability, T/C: 53.8%
[29]
  viability, T/C: 44.5%
[30]
  viability, T/C: 41%
[31]
  viability, T/C: 64.1%
[32]
  viability, T/C: 73.5%
[33]
  viability, T/C: 67.7%
[34]
  viability, T/C: 45.8%
[35]
  viability, T/C: 43.2%
[36]
  viability, T/C: 5.43%

## CC(=O)O[C@H]1C(=O)[C@@]2(C)[C@H]([C@H](OC(=O)c3ccccc3)[C@]3(O)C[C@H](OC(=O)[C@H](O)[C@@H](NC(=O)c4ccccc4)c4ccccc4)C(C)=C1C3(C)C)[C@]1(OC(C)=O)CO[C@@H]1C[C@@H]2O + Cc1cnc(CNC(=O)c2c(=O)c3ccc(N4CCCN(C)CC4)nc3n3c2sc2ccccc23)cn1
Second compound 0.0316 µM
  IC50: > 10 µM
Second compound 0.1 µM
  IC50: > 10 µM
Second compound 0.316 µM
  IC50: > 10 µM
Second compound 1 µM
  IC50: > 10 µM
Second compound 3.16 µM
  IC50: > 10 µM
Second compound 10 µM
  IC50: > 10 µM
[1]
  viability, T/C: 72.5%
[2]
  viability, T/C: 80.5%
[3]
  viability, T/C: 90.3%
[4]
  viability, T/C: 81.1%
[5]
  viability, T/C: 84.1%
[6]
  viability, T/C: 95.8%
[7]
  viability, T/C: 80.1%
[8]
  viability, T/C: 93.4%
[9]
  viability, T/C: 80.8%
[10]
  viability, T/C: 93.6%
[11]
  viability, T/C: 86.6%
[12]
  viability, T/C: 84.5%
[13]
  viability, T/C: 97.5%
[14]
  viability, T/C: 94%
[15]
  viability, T/C: 89.9%
[16]
  viability, T/C: 91%
[17]
  viability, T/C: 87.7%
[18]
  viability, T/C: 95.6%
[19]
  viability, T/C: 76%
[20]
  viability, T/C: 84.8%
[21]
  viability, T/C: 88.6%
[22]
  viability, T/C: 89.5%
[23]
  viability, T/C: 87%
[24]
  viability, T/C: 75.8%
[25]
  viability, T/C: 91.5%
[26]
  viability, T/C: 72.9%
[27]
  viability, T/C: 80.8%
[28]
  viability, T/C: 71.1%
[29]
  viability, T/C: 80.3%
[30]
  viability, T/C: 83.8%
[31]
  viability, T/C: 59.9%
[32]
  viability, T/C: 62.5%
[33]
  viability, T/C: 64.9%
[34]
  viability, T/C: 53.8%
[35]
  viability, T/C: 51.4%
[36]
  viability, T/C: 61.4%

## CC(C)(O)C1CCC(Nc2ccc3ncc(-c4cccc(C(F)(F)F)c4)n3n2)CC1 (stereo not drawn) + Cc1cnc(CNC(=O)c2c(=O)c3ccc(N4CCCN(C)CC4)nc3n3c2sc2ccccc23)cn1
Second compound 0.0316 µM
  IC50: > 10 µM
Second compound 0.1 µM
  IC50: > 10 µM
Second compound 0.316 µM
  IC50: > 10 µM
Second compound 1 µM
  IC50: 3 µM
Second compound 3.16 µM
  IC50: 0.994 µM
Second compound 10 µM
  IC50: 0.995 µM
[1]
  viability, T/C: 94.9%
[2]
  viability, T/C: 79.8%
[3]
  viability, T/C: 81.8%
[4]
  viability, T/C: 70.6%
[5]
  viability, T/C: 55.2%
[6]
  viability, T/C: 58.8%
[7]
  viability, T/C: 83.2%
[8]
  viability, T/C: 109%
[9]
  viability, T/C: 78.4%
[10]
  viability, T/C: 68.9%
[11]
  viability, T/C: 49.4%
[12]
  viability, T/C: 55.6%
[13]
  viability, T/C: 84.3%
[14]
  viability, T/C: 92.5%
[15]
  viability, T/C: 83.7%
[16]
  viability, T/C: 63.1%
[17]
  viability, T/C: 54%
[18]
  viability, T/C: 49.5%
[19]
  viability, T/C: 80.4%
[20]
  viability, T/C: 89.2%
[21]
  viability, T/C: 84.7%
[22]
  viability, T/C: 67.7%
[23]
  viability, T/C: 50.4%
[24]
  viability, T/C: 45.4%
[25]
  viability, T/C: 79.9%
[26]
  viability, T/C: 74.3%
[27]
  viability, T/C: 69.8%
[28]
  viability, T/C: 51.1%
[29]
  viability, T/C: 34.7%
[30]
  viability, T/C: 39.1%
[31]
  viability, T/C: 75.6%
[32]
  viability, T/C: 57%
[33]
  viability, T/C: 58.6%
[34]
  viability, T/C: 50.5%
[35]
  viability, T/C: 7.86%
[36]
  viability, T/C: 3.2%

## COc1cc(C2c3cc4c(cc3C(OC3OC5COC(C)OC5C(O)C3O)C3COC(=O)C23)OCO4)cc(OC)c1O (stereo not drawn) + Cc1cnc(CNC(=O)c2c(=O)c3ccc(N4CCCN(C)CC4)nc3n3c2sc2ccccc23)cn1
Second compound 0.0316 µM
  IC50: > 10 µM
Second compound 0.1 µM
  IC50: > 10 µM
Second compound 0.316 µM
  IC50: > 10 µM
Second compound 1 µM
  IC50: > 10 µM
Second compound 3.16 µM
  IC50: > 10 µM
Second compound 10 µM
  IC50: > 10 µM
[1]
  viability, T/C: 83.2%
[2]
  viability, T/C: 91.7%
[3]
  viability, T/C: 87.8%
[4]
  viability, T/C: 72.9%
[5]
  viability, T/C: 98.6%
[6]
  viability, T/C: 82.1%
[7]
  viability, T/C: 97%
[8]
  viability, T/C: 92.2%
[9]
  viability, T/C: 76.2%
[10]
  viability, T/C: 95.3%
[11]
  viability, T/C: 75.5%
[12]
  viability, T/C: 88%
[13]
  viability, T/C: 85.4%
[14]
  viability, T/C: 77.3%
[15]
  viability, T/C: 86.9%
[16]
  viability, T/C: 94.8%
[17]
  viability, T/C: 73.1%
[18]
  viability, T/C: 81%
[19]
  viability, T/C: 84.8%
[20]
  viability, T/C: 80.2%
[21]
  viability, T/C: 85.8%
[22]
  viability, T/C: 83.2%
[23]
  viability, T/C: 96.4%
[24]
  viability, T/C: 78.2%
[25]
  viability, T/C: 78.7%
[26]
  viability, T/C: 78.2%
[27]
  viability, T/C: 76.7%
[28]
  viability, T/C: 76.9%
[29]
  viability, T/C: 87.7%
[30]
  viability, T/C: 75.2%
[31]
  viability, T/C: 65.1%
[32]
  viability, T/C: 72.2%
[33]
  viability, T/C: 70.9%
[34]
  viability, T/C: 71.5%
[35]
  viability, T/C: 78.7%
[36]
  viability, T/C: 82.9%
